Source: patent US12006332B2, “Aminopyrimidine derivatives as phosphatidylinositol phosphate kinase inhibitors” (HiberCell, Inc., priority 2019, dated 2024)

What was measured:
[1] = target: T1, PIP4K2 B (Homo sapiens, UniProt P78356); test: Kinase Assay-PIP4K2 B (Transcreener FI); type: biochemical
T1 construct: made in house; host or cells: E. coli
T1 sequence (P78356 1-416): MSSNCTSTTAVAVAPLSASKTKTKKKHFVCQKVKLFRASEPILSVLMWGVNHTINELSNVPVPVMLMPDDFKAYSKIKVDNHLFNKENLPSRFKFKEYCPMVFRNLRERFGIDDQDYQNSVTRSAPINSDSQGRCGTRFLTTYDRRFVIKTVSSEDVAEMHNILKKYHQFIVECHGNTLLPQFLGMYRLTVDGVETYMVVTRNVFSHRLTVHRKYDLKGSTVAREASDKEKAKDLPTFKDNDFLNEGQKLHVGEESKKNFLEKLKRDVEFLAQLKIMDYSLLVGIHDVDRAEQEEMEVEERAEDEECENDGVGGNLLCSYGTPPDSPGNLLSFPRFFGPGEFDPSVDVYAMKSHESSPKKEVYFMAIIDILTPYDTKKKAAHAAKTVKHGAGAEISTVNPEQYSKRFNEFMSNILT
Description: GST tagged PIP4KtypeIIA and B enzymes were overexpressed in E. Coli and purified to >80% homogeneity. Phosphatidyl inositol-5-phosphate (PI5P, Cat. #850152, Avanti Polar Lipids Inc.) was used as the lipid substrate and phosphatidyl ethanolamine (DOPE 18:1, Cat. #850725, Avanti Polar Lipids Inc.) was used as the carrier lipid for assays. Ultrapure ATP and GTP was purchased from Bellbrooke Labs. ADP Glo reagents were obtained from Promega. Transcreener FI reagent was obtained from Bellbrooke labs.
• 1. HEPES buffer mix: 200 mM HEPES pH 7.4, 50 mM MgCl2, 0.05% v/v triton X 100 • 2. HNE buffer: 20 mM HEPES, pH 7.4, 100 mM NaCl, 0.5 mM EGTA • 3. H:E buffer: 30 mM HEPES, pH 7.4, 1 mM EGTA
GST-tagged PIP4KtypeIIB (3.4 μl, 2.77 mg/mL) was diluted to 5 mL using HNE buffer to yield 5× enzyme stock (25 nM)
Lipid Preparation: In a 10 mL pyrex glass vial, […] were suspended in 2.5 mL of HEPES buffer mix and 2.5 mL of H:E buffer. The contents were mixed and sonicated for 3 min to yield a translucent lipid stock.
Compound Preparation: Compounds were stored as 5 mM stocks in neat DMSO as room temperature in glass vials. 5 mM stocks were diluted to 2 mM and then serially diluted (3×) in neat DMSO in 96 well polypropylene plates. From the serially diluted stocks, 3 μL was delivered into 250 μL of 25% DMSO (in water) to generate 5× compound stocks. Typically, the highest compound conc. was 24 μM.
The assay volume was kept at 25 μL. To each well of the reaction plate, 10 μL of lipid stock (1:1 ratio PI5P:DOPE) was delivered. This was followed by the addition of 5 μL of compound in 25% DMSO. Then, to each well, 5 μL of 25 nM (5×) typeIIB enzyme was delivered. The contents were mixed well and incubated for 1 h at 27° C. After 1 h, reaction was initiated by adding 5 μL of 500 μM GTP and the contents were mixed well with a multi-channel pipetteman. The final concentration of the reagents are as follows: 50 mM HEPES, pH 7.3, 10 mM MgCl2, 20 mM NaCl, 0.01% v/v triton-X100, 5% DMSO, 100 μM GTP, 80 μM (2 μg) PI5P, 2 μg DOPE, and 5 nM PIP4KIIB Typically, the highest conc. of compounds was 4.8 μM and the lowest conc. was 0.
After 2 h, the reaction was quenched by adding 25 μL of transcreener FI reagent. The contents were incubated at rt for 1 h and the Fluorescence (Ex: 584 Em: 623) was read using Molecular Devices Paradigm plate reader. […] The blanks were averaged and subtracted from all other wells. Using a calibration curve, RFU was converted to μM GDP (product). IC50 was calculated by plotting the residual activity (expressed as % No inhibitor control) vs. log [Inh. conc.].

[2] = test system: MOLM-16; test: MOLM-16 EC50 assay; type: cell-based; settings: MOLM16
[3] = target: T2, PIP4K2A (Homo sapiens, UniProt P48426); test: Kinase Assay-PIP4K2 A (ADP-Glo); type: biochemical
T2 construct: made in house; host or cells: E. coli
T2 sequence (P48426 1-406): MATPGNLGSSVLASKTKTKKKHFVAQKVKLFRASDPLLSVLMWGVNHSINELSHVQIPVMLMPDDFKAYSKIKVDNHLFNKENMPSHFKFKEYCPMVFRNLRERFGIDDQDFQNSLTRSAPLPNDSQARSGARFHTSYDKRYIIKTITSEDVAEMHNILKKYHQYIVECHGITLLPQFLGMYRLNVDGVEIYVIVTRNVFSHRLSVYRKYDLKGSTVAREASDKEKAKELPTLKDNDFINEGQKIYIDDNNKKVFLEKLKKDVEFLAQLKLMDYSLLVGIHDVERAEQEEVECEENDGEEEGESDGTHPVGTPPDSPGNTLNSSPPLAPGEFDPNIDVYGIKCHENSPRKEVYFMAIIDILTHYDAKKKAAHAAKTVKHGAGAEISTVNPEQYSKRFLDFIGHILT
Experimental: Dilution series of the compounds were prepared in DMSO at 100 times the final assay concentration (n1=n0/3 in 10 points). The compounds were further diluted to three times the assay concentration in assay buffer (20 mM MOPS pH 7.2, 25 mM magnesium chloride, 0.005% Tween 20). 6 μL of the diluted compounds were added to a 384 well assay plate followed by 9 μL of a mix consisting of 4 nM PIP4K2A (full length protein, SignalChem) and 100 μM PI(5)P diC8 (Tebu-Bio). Enzyme and compounds were pre-incubated at room temperature for 15 minutes.
Then 3 μL of a solution containing 60 μM ATP (Promega) in assay buffer was added to the wells containing compound and enzyme and mixing was performed by pipetting several times. The reaction was incubated at room temperature for 1 h. Then 18 μL of ADP-Glo™ Reagent (Promega) was added to stop the kinase reaction and deplete the unconsumed ATP, mixing was performed by pipetting several times. The plate was incubated at room temperature for 40 minutes before addition of 36 μL of Kinase Detection Reagent (Promega) to convert ADP to ATP and introduce luciferase and luciferin to detect ATP. The reaction was incubated at room temperature for 40 minutes before the luminescence was measured in a in a Victor 3V 1420 multilabel counter (Perkin Elmer).
Percent inhibition of the compounds as compared to dimethyl sulfoxide treated control samples was calculated. Compound concentration versus percent inhibition were fitted to generate IC50 values. […]

Compound	IC50 [1]	EC50 [2]	IC50 [3]
O=C1CCCN1c1ccc(-c2cnc(Nc3cnc4c(c3)N3C(=O)CC[C@H]3CO4)nc2OCCN2CCOCC2)cc1 [Compound 6, (6S)-12-({4-[2-(morpholin-4-yl)ethoxy]-5-[4-(2-oxopyrrolidin-1-yl)phenyl]pyrimidin-2-yl}amino)-8-oxa-2,10-diazatricyclo[7.4.0.0^2,6]trideca-1(9),10,12-trien-3-one]	1 to 10 nM	10 to 100 nM	1 to 10 nM
CN(c1nc(Nc2cnc3c(c2)N2C(=O)CC[C@H]2CO3)ncc1-c1ccc(N2CCCC2=O)cc1)[C@@H]1CCOC1 [Compound 7, (6S)-12-[(4-{methyl[(3R)-oxolan-3-yl]amino}-5-[4-(2-oxopyrrolidin-1-yl)phenyl]pyrimidin-2-yl)amino]-8-oxa-2,10-diazatricyclo[7.4.0.0^2,6]trideca-1(13),9,11-trien-3-one]	1 to 10 nM	> 1000 nM	1 to 10 nM
COc1nc(Nc2cncc(N3CCC(N(C)C)CC3)c2)ncc1-c1ccc(-c2nnccc2C)cc1 [Compound 17, N-{5-[4-(dimethylamino)piperidin-1-yl]pyridin-3-yl}-4-methoxy-5-[4-(4-methylpyridazin-3-yl)phenyl]pyrimidin-2-amine]	10 to 100 nM		10 to 100 nM
CCN(CC)CCOC(=O)N1CCOc2ncc(Nc3ncc(-c4ccc(N5C(=O)CC[C@H]5C)cc4)cn3)cc21 [Compound 22, 2-(diethylamino)ethyl 7-[(5-{4-[(2R)-2-methyl-5-oxopyrrolidin-1-yl]phenyl}pyrimidin-2-yl)amino]-1H,2H,3H-pyrido[2,3-b][1,4]oxazine-1-carboxylate]	10 to 100 nM		10 to 100 nM
CCN(CC)CCOC(=O)N1CCOc2ncc(Nc3ncc(-c4ccc(N5CCCC5=O)cc4)cn3)cc21 [Compound 23, 2-(diethylamino)ethyl 7-({5-[4-(2-oxopyrrolidin-1-yl)phenyl]pyrimidin-2-yl}amino)-1H,2H,3H-pyrido[2,3-b][1,4]oxazine-1-carboxylate]	10 to 100 nM		10 to 100 nM
CCN(CC)CCN(C)C(=O)N1CCOc2ncc(Nc3ncc(-c4ccc(N5C(=O)CC[C@H]5C)cc4)c(OC)n3)cc21 [Compound 24, N-[2-(diethylamino)ethyl]-7-[(4-methoxy-5-{4-[(2R)-2-methyl-5-oxopyrrolidin-1-yl]phenyl}pyrimidin-2-yl)amino]-N-methyl-1H,2H,3H-pyrido[2,3-b][1,4]oxazine-1-carboxamide]	10 to 100 nM		100 to 1000 nM
CCN(CC)CCN(C)C(=O)N1CCOc2ncc(Nc3ncc(-c4ccc(N5C(=O)CC[C@H]5C)cc4)cn3)cc21 [Compound 25, N-[2-(diethylamino)ethyl]-N-methyl-7-[(5-{4-[(2R)-2-methyl-5-oxopyrrolidin-1-yl]phenyl}pyrimidin-2-yl)amino]-1H,2H,3H-pyrido[2,3-b][1,4]oxazine-1-carboxamide]	100 to 1000 nM		100 to 1000 nM
CP(C)(=O)c1ccc(-c2ccc(Nc3cnc4c(c3)N3C(=O)CC[C@H]3CO4)nc2)cc1 [Compound 27, (6S)-12-({5-[4-(dimethylphosphoryl)phenyl]pyridin-2-yl}amino)-8-oxa-2,10-diazatricyclo[7.4.0.0^2,6]trideca-1(9),10,12-trien-3-one]	> 1000 nM		> 1000 nM

Other lines, results leading:

IC50 [1]	EC50 [2]	IC50 [3]	Compound
≤ 1 nM	> 1000 nM	≤ 1 nM	O=C(O)CNc1nc(Nc2cnc3c(c2)N2C(=O)CC[C@H]2CO3)ncc1-c1ccc(N2CCCC2=O)cc1 [Compound 1, 2-[(2-{[(6S)-3-oxo-8-oxa-2,10-diazatricyclo[7.4.0.0^2,6]trideca-1(9),10,12-trien-12-yl]amino}-5-[4-(2-oxopyrrolidin-1-yl)phenyl]pyrimidin-4-yl)amino]acetic acid]
1 to 10 nM	> 1000 nM	≤ 1 nM	CN(c1nc(Nc2cnc3c(c2)N2C(=O)CC[C@H]2CO3)ncc1-c1ccc(N2CCCC2=O)cc1)[C@H]1CCOC1 [Compound 2, (6S)-12-[(4-{methyl[(3S)-oxolan-3-yl]amino}-5-[4-(2-oxopyrrolidin-1-yl)phenyl]pyrimidin-2-yl)amino]-8-oxa-2,10-diazatricyclo[7.4.0.0^2,6]trideca-1(13),9,11-trien-3-one]
1 to 10 nM	> 1000 nM	≤ 1 nM	CN(c1nc(Nc2cnc3c(c2)N2C(=O)CC[C@H]2CO3)ncc1-c1ccc(N2CCCC2=O)cc1)C1CCOC1 (stereo partly drawn) [Compound 3, (6S)-12-({4-[methyl(oxolan-3-yl)amino]-5-[4-(2-oxopyrrolidin-1-yl)phenyl]pyrimidin-2-yl}amino)-8-oxa-2,10-diazatricyclo[7.4.0.0^2,6]trideca-1(13),9,11-trien-3-one]
1 to 10 nM	> 1000 nM	1 to 10 nM	CN(c1nc(Nc2cnc3c(c2)N2C(=O)CC[C@H]2CO3)ncc1-c1ccc(N2CCCC2=O)cc1)[C@H]1C[C@H](O)C1 [Compound 4, (6S)-12-[(4-{methyl[(1r,3r)-3-hydroxycyclobutyl]amino}-5-[4-(2-oxopyrrolidin-1-yl)phenyl]pyrimidin-2-yl)amino]-8-oxa-2,10-diazatricyclo[7.4.0.0^2,6]trideca-1(13),9,11-trien-3-one]
1 to 10 nM	10 to 100 nM	1 to 10 nM	COc1nc(Nc2cnc3c(c2)N(C(=O)OCCN(C)C)CCO3)ncc1-c1ccc(N2CCCC2=O)cc1 [Compound 5, 2-(dimethylamino)ethyl 7-({4-methoxy-5-[4-(2-oxopyrrolidin-1-yl)phenyl]pyrimidin-2-yl}amino)-1H,2H,3H-pyrido[2,3-b][1,4]oxazine-1-carboxylate]
